Test results published in US20190054038A1, “NITRIC OXIDE GENERATING FORMULATIONS AND KITS” (THE REGENTS OF THE UNIVERSITY OF MICHIGAN, priority 2016, published 2019).
Values belong to the molecule of their own block, whether it stands above or below them.

Assays:
[1] = NO release kinetics of solutions by chemiluminescence (nitric oxide analyzer); type: physicochemical
Protocol: The NO release profile of the two solutions was measured via chemiluminescence detection at 37° C., and the results are shown in FIG. 3. As depicted, both solutions continuously generated NO for more than 7 hours, and the solution containing the higher concentration of GSNO generated higher levels of NO.
As depicted, the inclusion of ascorbate provided an enhanced NO release profile, with all of the NO release within a 2-3 hour window.
The NO release rate of some of the solution formulations was measured by chemiluminescent nitric oxide analyzer (NOA) at room temperature and at 37° C. in an amber NOA cell, while purging with 50 mL/min nitrogen through a glass pipette. The solution formulations were freshly prepared (initial data) (i.e., the dry powder nasal formulation was dissolved in 10 mL of saline solution (NaCl and NaHCO3 in water) immediately before measurements), or were prepared from stored dry power aliquots that were freshly dissolved in 10 mL of saline solution (NaCl and NaHCO3 in water) immediately before measurements. The NO release rate was tested for one or more of the following time periods: 0 (freshly prepared), 1 month, 2 months, 4 months, and 6 months.
The NOA was a Sievers NOA. Studying the release kinetics included analyzing the overall shape of the transient curve, half-life, and total NO released compared to theoretical GSNO content (%). Primarily, the shape of the graph was considered most qualitative, as different machines yield different PPB/mL values due to differing constants. If necessary, the GSNO quantification in each formulation was tested by a copper/cysteine method to release all of the NO from the GSNO very rapidly.

[2] = tested on: S. aureus biofilm on CF airway epithelial cells; experiment: Killing of S. aureus biofilm on CF airway epithelial cell cultures (bacterial density by plating lysates); type: cell-based; conditions: 1.25 mM, 4 hours
Protocol: Progenitor (basal) airway epithelial cells isolated from cystic fibrosis patients were cultured at air/liquid interface to promote mucociliary differentiation resembling airway epithelium in vivo. These cultures will be referred to herein as CF airway epithleial cells.
Apical surface of the CF airway epithelial cells was washed with PBS, infected apically with 10 μl of S. aureus (1×10^5 CFU/well or at 0.01 multiplication of infection), and incubated for 24 hours. […] The basolateral medium was changed, the apical surface was washed with saline once, and then 30 μl of PBS containing various concentrations of GSNO/Asc (i.e., 0 mM, 0.3 mM, 0.625 mM, 1.25 mM, 2.5 mM, and 5 mM) was added to the apical surface and incubated for 4 hours. The apical surface was washed once with 0.2 ml of 0.15% bicarbonate in PBS. […] Cells were lysed in 1% Triton X-100 and serial dilutions of cell lysates were plated to determine the bacterial density (FIG. 17A).
Apical surface of CF airway epithelial cells was washed with PBS, infected apically with 10 μl of S. aureus (2×10^6 CFU/well), and incubated for 24 hours. The basolateral medium was changed, the apical surface was washed with saline once and treated apically with 30 μl of PBS, or saline containing 1.25 mM GSNO/Asc, or saline containing 50 μg of gentamicin, or saline containing a mixture of 1.25 mM GSNO/Asc and 50 μg of gentamicin. […]

[3] = Stability of dry powder formulations by UV/Vis (GSNO absorbance at 334 nm); type: physicochemical
Protocol: Some of the formulations also included ethylenediamintetraacetic acid (EDTA) and/or saline salts (NaCl and NaHCO3). The constituents were mixed as dry powders and were stored in 4 mL amber vials either in the freezer (−18° C.), at 4° C., at room temperature (RT, from about 20° C. to about 25° C.), or at 37° C. The stability of some of the dry powder formulations was tested via UV/Vis analysis and/or via the Sievers nitric oxide (NO) analyzer (as previously described). For the UV/Vis analysis, at each time interval (0 (freshly prepared), 1 month, 2 months, 4 months, and 6 months), three samples (3-5 mg each) from the dry powder formulations (at each temperature, resulting in 12 vials per formulation) were put into 4 mL amber vials. The respective formulations were then diluted in 4 mL PBS+0.1 mM EDTA (PB SE) solution and mixed for 30 seconds, and 1 mL of the diluted formulation was injected into 3 mL PBSE in a disposable UV/VIS cuvette. The absorbance spectrum was measured typically between 300-600 nm after measuring the PBSE spectrum as blank. GSNO was quantified by absorbance measured at 334 nm. These values were then compared to a calculated value of the percentage of initial or theoretical GSNO content of each formulation.

EDTA stability in stored dry powder formulation ([1]; NO release patterns, fresh vs stored several months): stable
Compound: O=C(O)CN(CCN(CC(=O)O)CC(=O)O)CC(=O)O [EDTA, ethylenediaminetetraacetic acid]

Compound: N[C@@H](CCC(=O)N[C@@H](CS)C(=O)NCC(=O)O)C(=O)O [GSH, reduced L-glutathione]
change in bacterial density [2]: no significant changes in bacterial density

% of initial GSNO remaining ([3]; dry powder stored at 37° C., after 6 months): 67%
stability of dry powder over six months (UV/VIS) ([3]; stored at −18° C., 4° C., room temperature, 37° C.): no significant decrease in the stability
time of continuous NO generation ([1]; 10 μM and 25 μM GSNO in phosphate buffered saline pH 7.4, 37° C., no additive): more than 7 hours
time of peak NO release ([1]; GSNO 1-100 μM in saline, without any additive): 5 to 6 h
Compound: N[C@@H](CCC(=O)N[C@@H](CSN=O)C(=O)NCC(=O)O)C(=O)O [GSNO, S-nitrosoglutathione]
amount of NO release versus GSNO concentration ([1]; GSNO 1-100 μM in saline): directly related to the GSNO concentration

ascorbic acid stability in stored dry powder formulation ([3]; UV/Vis of GSNO mixed with ascorbic acid, fresh vs stored several months): relatively stable
Compound: O=C1O[C@H]([C@@H](O)CO)C(O)=C1O [ascorbic acid, L-ascorbic acid, reference compound]
change in bacterial density [2]: no significant changes in bacterial density
